Assay results as given in ChEMBL document CHEMBL4017512 (J Med Chem, 2017).

Key:
[1] = system: HCT-116; experiment: Antiproliferative activity against human HCT116 cells after 72 hrs by phosphatase assay; assay type: functional, cell-based; conditions: HCT-116, 72 h
[2] = Cytotoxicity against human HCT116/VM46 cells assessed as reduction in cell viability after 72 hrs by phosphatase assay; assay type: cell-based; conditions: HCT-116/VM46, 72 h
[3] = system: L1210; experiment: Antiproliferative activity against mouse L1210 cells after 72 hrs by phosphatase assay; assay type: functional, cell-based; conditions: L1210, 72 h

Compound | IC50 [1] [nM] | IC50 [2] [nM] | IC50 [3] [nM]
CC[C@]1(NS(=O)(=O)c2ccccc2)C[C@H]2CN(CCc3c([nH]c4ccccc34)[C@@](C(=O)OC)(c3cc4c(cc3OC)N(C)[C@H]3[C@@](O)(C(=O)OC)[C@H](OC(C)=O)[C@]5(CC)C=CCN6CC[C@]43[C@@H]65)C2)C1 | 50 | 680 | 45
CC[C@]1(NC(=O)c2ccc3cc(OC)ccc3c2)C[C@H]2CN(CCc3c([nH]c4ccccc34)[C@@](C(=O)OC)(c3cc4c(cc3OC)N(C)[C@H]3[C@@](O)(C(=O)OC)[C@H](OC(C)=O)[C@]5(CC)C=CCN6CC[C@]43[C@@H]65)C2)C1 | 3.5 | 20 | 2.5
CC[C@]1(NC(=O)/C=C/c2ccco2)C[C@H]2CN(CCc3c([nH]c4ccccc34)[C@@](C(=O)OC)(c3cc4c(cc3OC)N(C)[C@H]3[C@@](O)(C(=O)OC)[C@H](OC(C)=O)[C@]5(CC)C=CCN6CC[C@]43[C@@H]65)C2)C1 | 1.3 | 30 | 1.3
CC[C@]1(NC(=O)c2cc(C)cc(C)c2)C[C@H]2CN(CCc3c([nH]c4ccccc34)[C@@](C(=O)OC)(c3cc4c(cc3OC)N(C)[C@H]3[C@@](O)(C(=O)OC)[C@H](OC(C)=O)[C@]5(CC)C=CCN6CC[C@]43[C@@H]65)C2)C1 | 6 | 9.2 | 5.4
CC[C@]1(NC(=O)c2ccc(OC)c(Cl)c2)C[C@H]2CN(CCc3c([nH]c4ccccc34)[C@@](C(=O)OC)(c3cc4c(cc3OC)N(C)[C@H]3[C@@](O)(C(=O)OC)[C@H](OC(C)=O)[C@]5(CC)C=CCN6CC[C@]43[C@@H]65)C2)C1 | 5.1 | 8.9 | 3.7
CC[C@]1(NC(=O)c2ccc(OC(F)(F)F)cc2)C[C@H]2CN(CCc3c([nH]c4ccc(F)cc34)[C@@](C(=O)OC)(c3cc4c(cc3OC)N(C)[C@H]3[C@@](O)(C(=O)OC)[C@H](OC(C)=O)[C@]5(CC)C=CCN6CC[C@]43[C@@H]65)C2)C1 | 0.7 | 1 | 0.6
CC[C@]1(NC(=O)c2ccc(C(C)(C)C)cc2)C[C@H]2CN(CCc3c([nH]c4ccccc34)[C@@](C(=O)OC)(c3cc4c(cc3OC)N(C)[C@H]3[C@@](O)(C(=O)OC)[C@H](OC(C)=O)[C@]5(CC)C=CCN6CC[C@]43[C@@H]65)C2)C1 | 1.9 | 55 | 0.6
CC[C@]1(NC(=O)c2ccc3cc4ccccc4cc3c2)C[C@H]2CN(CCc3c([nH]c4ccccc34)[C@@](C(=O)OC)(c3cc4c(cc3OC)N(C)[C@H]3[C@@](O)(C(=O)OC)[C@H](OC(C)=O)[C@]5(CC)C=CCN6CC[C@]43[C@@H]65)C2)C1 | 60 | 150 | 40
CC[C@]1(NC(=O)C2Cc3ccccc3C2)C[C@H]2CN(CCc3c([nH]c4ccccc34)[C@@](C(=O)OC)(c3cc4c(cc3OC)N(C)[C@H]3[C@@](O)(C(=O)OC)[C@H](OC(C)=O)[C@]5(CC)C=CCN6CC[C@]43[C@@H]65)C2)C1 | 15 | 80 | 30
CC[C@]1(NS(=O)(=O)c2cccc([N+](=O)[O-])c2)C[C@H]2CN(CCc3c([nH]c4ccccc34)[C@@](C(=O)OC)(c3cc4c(cc3OC)N(C)[C@H]3[C@@](O)(C(=O)OC)[C@H](OC(C)=O)[C@]5(CC)C=CCN6CC[C@]43[C@@H]65)C2)C1 | 490 | 430 | 450
CC[C@]1(NC(=O)c2cccc(C(C)C)c2)C[C@H]2CN(CCc3c([nH]c4ccccc34)[C@@](C(=O)OC)(c3cc4c(cc3OC)N(C)[C@H]3[C@@](O)(C(=O)OC)[C@H](OC(C)=O)[C@]5(CC)C=CCN6CC[C@]43[C@@H]65)C2)C1 | 8.7 | 65 | 7.5
CC[C@]1(NC(=O)c2ccc3c(c2)OCCO3)C[C@H]2CN(CCc3c([nH]c4ccccc34)[C@@](C(=O)OC)(c3cc4c(cc3OC)N(C)[C@H]3[C@@](O)(C(=O)OC)[C@H](OC(C)=O)[C@]5(CC)C=CCN6CC[C@]43[C@@H]65)C2)C1 | 0.5 | 5.3 | 0.6
